Literature values, collected in publication PMC8991498 (Food Chemistry: Molecular Sciences, 2021).

Tested on: Caco-2 cell monolayers

| Sequence | Absorption of β-casein fragment (ref Regazzo et al. (2010)) | Passage of RAP through Caco-2 cell monolayers (ref Xu et al. (2017)) |
| --- | --- | --- |
| YQEPVLGPVRGPFPIIV [β-casein fragment] | could be absorbed mainly by transcytosis | – |
| YWDHNNPQIR [RAP] | – | a percentage of this peptide managed to pass intact through the monolayer |
